Measurements: ChEMBL document CHEMBL3621065, “Structure-activity relationship studies of SETD8 inhibitors” (Medchemcomm, 2014)

Molecular target: T1, N-lysine methyltransferase KMT5A (Homo sapiens, UniProt Q9NQR1)
T1 sequence (Q9NQR1 whole entry): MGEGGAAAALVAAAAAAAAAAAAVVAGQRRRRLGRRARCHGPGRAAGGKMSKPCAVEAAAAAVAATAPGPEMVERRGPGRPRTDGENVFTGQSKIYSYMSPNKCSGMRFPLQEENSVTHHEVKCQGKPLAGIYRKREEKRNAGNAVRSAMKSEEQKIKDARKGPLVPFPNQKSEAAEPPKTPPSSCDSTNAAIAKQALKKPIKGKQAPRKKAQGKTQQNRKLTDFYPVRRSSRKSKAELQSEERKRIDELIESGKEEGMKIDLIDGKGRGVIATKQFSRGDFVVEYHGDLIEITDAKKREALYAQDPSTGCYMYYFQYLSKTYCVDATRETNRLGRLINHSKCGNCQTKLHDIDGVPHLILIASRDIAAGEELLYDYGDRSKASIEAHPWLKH
Assay: Inhibition of human SETD8 catalytic domain expressed in Escherichia coli assessed as reduction in transfer of tritiated methyl group from [3H]SAM to biotinylated H4 (1 to 24) peptide substrate by scintillation proximity assay

Row | IC50 [µM] | Compound
1 | > 250 | COc1cc2nc(N(C)c3ccc([N+](=O)[O-])cc3)nc(NCCCCCN3CCCC3)c2cc1OC
2 | > 250 | COc1cc2nc(Nc3ccccc3)nc(NCCCCCN3CCCC3)c2cc1OC
3 | > 250 | COc1cc2nc(N(C)CCN3CCCC3)nc(NCCCCCN3CCCC3)c2cc1OC
4 | > 250 | COc1cc2nc(Nc3ccc(C(F)(F)F)cc3)nc(NCCCCCN3CCCC3)c2cc1OC
5 | > 250 | COc1cc2nc(N3CCCC3)nc(N[C@H]3CC[C@H](CN)CC3)c2cc1OC
6 | > 250 | COc1cc2nc(-c3ccc(F)cc3)nc(NCCCCCN3CCCC3)c2cc1OC
7 | > 250 | COc1cc2nc(N(C)CCCN3CCCC3)nc(NCCCCCN3CCCC3)c2cc1OC
8 | > 250 | COc1cc2nc(-c3ccccc3)nc(NCCCCCN3CCCC3)c2cc1OC
9 | > 250 | COc1cc2nc(N3CCCC3)nc(NCC(=O)NCCN3CCCC3)c2cc1OC
10 | > 250 | c1ccc2c(NCCCCCN3CCCC3)nc(N3CCCC3)nc2c1
11 | > 250 | COc1ccc(Nc2nc(NCCCCCN3CCCC3)c3cc(OC)c(OC)cc3n2)cc1
12 | > 250 | COc1cc2nc(Nc3ccc([N+](=O)[O-])cc3)nc(NCCCCCN3CCCC3)c2cc1OC
13 | > 250 | COc1cc2nc(N3CCCC3)nc(N[C@H]3CC[C@H](N)CC3)c2cc1OC
14 | > 250 | COc1cc2nc(N3CCCC3)nc(NCC(=O)NCCN3CCN(C)CC3)c2cc1OC
15 | > 250 | COc1ccc(-c2nc(NCCCCCN3CCCC3)c3cc(OC)c(OC)cc3n2)cc1
16 | > 250 | COc1cc2nc(N(C)CCCCCN3CCCC3)nc(NCCCCCN3CCCC3)c2cc1OC
17 | > 250 | COc1cc2nc(N(C)c3ccccc3)nc(NCCCCCN3CCCC3)c2cc1OC
18 | > 250 | COc1ccc(N(C)c2nc(NCCCCCN3CCCC3)c3cc(OC)c(OC)cc3n2)cc1
19 | > 250 | COc1cc2nc(N3CCCC3)nc(NCC(=O)NCCN3CCNCC3)c2cc1OC
20 | > 250 | COc1cc2nc(N(C)CCCCN3CCCC3)nc(NCCCCCN3CCCC3)c2cc1OC
21 | > 250 | COc1cc2nc(-c3ccc(C(F)(F)F)cc3)nc(NCCCCCN3CCCC3)c2cc1OC
